Data on four molecules can be found in patent publication US20080039531A1, “Compositions, and kits comprising targeted aldehyde or acetal protease inhibitor compounds for treating muscle disorders” (priority 2005, published 2008).

Several values for one entry are separate records, joined by “and”; a condition that tells them apart may be missing. Equal entries are not always repeated. Where two headings read alike, the source gives them in different places.

The target of one data set is porcine kidney calpain 2 (Sus scrofa, UniProt I3LQD3). Briefly: Enzymatic calpain assay with fluorogenic substrate. Format: biochemical. The note with it: porcine kidney calpain 2, 37° C., 10 mM calcium chloride. An excerpt: The α-carbon stereocenter adjacent to the aldehyde group of CLA can be prepared in a “natural” L or “unnatural” D configuration. It is known however that enolization of such aldehydes can easily occur during synthesis, storage, or administration of such peptide aldehydes to patients, with the result that the α-carbon stereocenter undergoes racemization. To investigate the relative biological activity of the optical isomers of CLA, the pure form of both the L-argininal diethyl […] diethyl acetal forms of CLA were prepared via the method described in Example 11 below using both L and D enantiomers of the […] starting materials. […] Slopes were calculated for the initial phase of each reaction and the ratios of velocities for each compound concentration (Vi) to the uninihibited reaction velocity (V0) were calculated, plotted, and fitted to a rectangular hyperbola using the program Kaleidagraph (Synergy software). […] An increase in enzyme activity appears to occur at intermediate concentrations of the D-isomer (Panel B.). This increase may be due to weak binding at an allosteric site that is not inhibitory the enzyme.
Chain of porcine kidney calpain 2 (P04574 whole entry): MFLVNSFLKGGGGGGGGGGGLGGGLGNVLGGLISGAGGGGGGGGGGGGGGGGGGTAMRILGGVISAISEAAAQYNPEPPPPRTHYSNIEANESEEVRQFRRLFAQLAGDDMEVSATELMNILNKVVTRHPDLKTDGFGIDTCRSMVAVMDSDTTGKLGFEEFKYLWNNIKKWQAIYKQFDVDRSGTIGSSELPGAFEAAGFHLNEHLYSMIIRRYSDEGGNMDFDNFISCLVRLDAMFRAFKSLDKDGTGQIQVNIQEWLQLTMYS
Chain of porcine kidney calpain 2 (I3LQD3 entry or part of it): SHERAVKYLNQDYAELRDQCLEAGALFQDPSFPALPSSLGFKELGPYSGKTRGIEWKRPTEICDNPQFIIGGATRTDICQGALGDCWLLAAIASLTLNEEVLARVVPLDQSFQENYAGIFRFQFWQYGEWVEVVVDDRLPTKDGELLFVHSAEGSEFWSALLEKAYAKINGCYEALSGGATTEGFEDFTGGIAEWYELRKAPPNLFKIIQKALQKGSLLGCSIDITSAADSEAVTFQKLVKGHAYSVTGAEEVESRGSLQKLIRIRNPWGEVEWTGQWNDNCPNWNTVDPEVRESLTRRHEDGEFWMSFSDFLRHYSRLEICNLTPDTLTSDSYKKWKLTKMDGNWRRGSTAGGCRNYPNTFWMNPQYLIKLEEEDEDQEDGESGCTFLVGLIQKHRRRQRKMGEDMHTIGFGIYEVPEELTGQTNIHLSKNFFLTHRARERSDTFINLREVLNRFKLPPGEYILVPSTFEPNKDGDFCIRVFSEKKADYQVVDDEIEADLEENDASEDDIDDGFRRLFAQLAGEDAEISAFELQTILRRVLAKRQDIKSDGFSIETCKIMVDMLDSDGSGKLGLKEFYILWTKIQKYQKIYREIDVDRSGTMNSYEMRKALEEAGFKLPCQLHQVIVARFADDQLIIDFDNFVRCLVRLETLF

Data set [1] is described as follows: Qualitative oral bioavailability of CLA acetal in the rat (plasma). The following applies: for Estimated Plasma Concentration of CLA acetal / Estimated Plasma Concentration of CLA aldehyde: rat plasma.
Protocol: This experiment was designed to measure in a qualitative manner the oral bioavailability of CLA acetal in rats. Four Lewis strain normal male rats, 9 weeks of age were administered a single dose of 50 mg/kg of the acetate salt of the CLA acetal compound, using a single oral gavage. […] The blood samples were immediately centrifuged at 3000 rpm for 3-5 minutes to separate plasma from cells and the plasma and cells were frozen separately by immersion in liquid nitrogen and storage in a −20° C. freezer.
The aldehyde and acetal forms of CLA were then extracted from the plasma using a Bligh Dyer-type liquid phase extraction followed by solid-phase extraction using a reverse phase column. The relative amounts of CLA acetal and aldehyde were then measured using HPLC separation with mass spectrometric detection, using an electrospray ionization source and a Micromass Qtof detector.
A short description of data set [2]: Conversion of CLA acetal to aldehyde using acid (HPLC). Format: physicochemical. The following applies: 5 mg/mL in water. On the procedure: Solutions of CLA diethyl acetal in water were prepared at a concentration of 5 mg/mL and the pH was adjusted to values shown in Table 8 using concentrated hydrochloric acid. Each solution was incubated at different times at room temperature. Samples were removed at each time point and quenched using basic phosphate buffer, yielding a final pH of 9. The quenched samples were analyzed using an Agilent 1100 HPLC system. The aldehyde was chromatographically separated from the acetal on a C18 reverse-phase HPLC column, using a linear gradient where the starting mobile phase was 0.1% trifluoroacetic acid in a 99:1 water:acetonitrile mixture and the final mobile phase was 0.1% trifluoroacetic acid in a 50:50 water:acetonitrile mixture. The absorbance at 220 nm was monitored, and the area of the peak corresponding to elution of the CLA diethyl acetal was computed.

Data set [3] can be described thus: Uptake and conversion of CLA acetal in rat gastrocnemius muscle. Format: in vivo. How it is done: This experiment was designed to measure the uptake of CLA acetal in rat gastrocnemius muscle and to detect conversion of CLA acetal to CLA as it occurs in rat muscle. […] At different times following administration of drug, each rat was sacrificed, the left and right gastrocnemius muscles were dissected from the rat, and the muscles were frozen by immersion in liquid nitrogen and storage in a −80° C. freezer.
The muscle tissues were thawed and homogenized using a blender.

Data set [4] is described as follows: Single-dose oral rat toxicology study of CLA acetal. Format: in vivo, Sprague Dawley rats. The following applies: rats, oral gavage, 250, 1000, 2000 mg/kg, up to 24 hours after dosing. On the procedure: Sprague Dawley rats were administered single doses of CLA acetal by oral gavage at 7-8 weeks of age. Each group received a single oral dose level of CLA acetal, ranging in amount from 0 to 2000 mg/kg. The vehicle consisted of Dulbecco's phosphate-buffered saline.

The conditions of data set [5]: rats.
Protocol: In a pilot toxicology study, two groups of 2 male and 2 female Sprague-dawley rats each were administered intravenous bolus doses of 250 and 500 mg/kg CLA. […] In a larger, follow-up study (Table 11), Sprague-Dawley rats were administered several lower doses of CLA intravenously at 7-8 weeks of age. The rats were divided into 4 groups consisting of equal numbers of male and female rats. […] The vehicle consisted of Dulbecco's phosphate-buffered saline.
For another data set, the system named is mdx mice. The following applies: for Myofiber diameter (Gastrocnemis) / Myofiber diameter, Diaphragm: injected parenterally daily from one to two months. On the procedure: CLA was injected parenterally daily at the indicated concentrations into mdx mice from one to two months. Mdx control mice were injected with saline alone. At two months, the animals were sacrificed and indicated muscles removed, fixed, and stained for myofiber diameter analysis.

The subject of data set [6] is rat hind limb muscle (sciatic nerve denervation). The note with it: for % loss (muscle atrophy due to denervation): rat.
Protocol: Denervation was carried out on one of the hind limb sciatic nerves of the rat. Denervation was allowed to proceed for 7 days. Either leupeptin or CLA was injected 2×/day in forelimb muscle for seven days. The non-denervated hind limb was used as the control. Leupeptin and/or CLA were injected into alternating forelimb muscles for a period of seven days after which, animals were sacrificed, muscles excised and weighed.
The conditions of data set [7]: rats, various doses.
For data set [8], the system named is calpain. The note with it: RD muscle cells.
Description: This study was designed to measure the effect of CLA, a calpain inhibitor, upon calpain activity inside living muscle cells. […] Full length alpha-II spectrin has a molecular weight of approximately 250 kilodaltons; upon cleavage by calpain, calpain-specific spectrin breakdown products with molecular weights of approximately 150 and 145 kilodaltons, respectively, are generated sequentially. Human RD muscle cells are a rhabdomyosarcoma muscle cell line that expresses OCTN2, a transporter for carnitine. By monitoring the reduction in spectrin breakdown products caused by calpain inhibition in RD muscle cells, it is possible to measure the potency of inhibitors according to the extent to which they reduce the appearance of calpain-specific spectrin breakdown products.
In the experiment, Rd muscle cells were incubated with either CLA or leupeptin for 1 hour. 1 nM maitotoxin was added to the cells to stimulate calcium influx and calpain activation. The cells were incubated for another 60 minutes. The cells were then lysed in phosphate buffer containing 1% Triton X-100 and a protease inhibitor cocktail. The lysed samples were centrifuged and the supernatants were collected. The protein concentration in each supernatant was measured using a standard assay. 20 micrograms of each sample was electrophoresed on a 4% Tris-glycine polyacrylamide gel. […]
In data set [9] the test system is calpain. The following applies: rats, IP, muscle isolated after 2 hours. How it is done:
An initial series of toxicology experiments was performed in rats to assess the effect of CLA at various doses, on animal viability. […] A series of experiments to examine the ability of CLA vs. leupeptin to decrease activated calpain levels and inhibit muscle wasting was conducted. In the experiment shown in Table 4, rats were utilized to assess the effect of IP injection of either leupeptin or CLA into the hind limb muscle on their ability to inhibit calpain activity. To this end, four rats were injected IP with either leupeptin or CLA. After 2 hours, the muscle was isolated, homogenized, and assayed for remaining calpain activity by the standard assay.

Setting [10] is: 45 minutes after single oral gavage of 50 mg/kg CLA acetal acetate salt, single rat.
Setting [11] is: rat left gastrocnemius, 2 hours after oral 50 mg/kg CLA acetal acetate salt.
The mark [12] stands for this setting: rat right gastrocnemius, 6 hours after oral 50 mg/kg CLA acetal acetate salt.
Setting [13] is: rat right gastrocnemius, 8 hours after oral 50 mg/kg CLA acetal acetate salt, one line per rat, 50 mg/kg.

As a reminder, the IC50 is the point on the concentration scale where inhibition reaches its midpoint. Regarding `CC(C)CC(NC(=O)CCC(=O)NC(CC(=O)[O-])C[N+](C)(C)C)C(=O)NC(C=O)CCCNC(=N)N` [L-isomer of CLA], on porcine kidney calpain 2 (FIG. 7 Panel A), the IC50 was 0.5 to 1 µM.

Take `CC(=O)O.CCOC(OCC)[C@H](CCCNC(=N)N)NC(=O)[C@H](CC(C)C)NC(=O)CCC(=O)N[C@H](CC(=O)[O-])C[N+](C)(C)C` [CLA acetal, aminocarnityl-succinyl-leucyl-argininal diethyl acetal]: the “Estimated Plasma Concentration of CLA acetal” value was 5,840 ng/mL in data set [1] (setting [10]); 970 ng/mL and 8240 ng/mL and 51200 ng/mL in data set [1] (60 minutes after single oral gavage of 50 mg/kg CLA acetal acetate salt, one line per rat, 50 mg/kg). In addition, the oral absorption result in data set [1] (rats, 50 mg/kg oral gavage) is reported as “absorbed intact”. Besides, the Percent acetal remaining stood at 100.0% in data set [2] (pH = 0, room temperature, activation time 0 min); 80.0% in data set [2] (pH = 0, room temperature, activation time 5 min); 28.5% in [2] (pH = 0, room temperature, activation time 15 min); 11.2% in data set [2] (pH = 0, room temperature, activation time 30 min); 11.3% in [2] (pH = 0, room temperature, activation time 45 min); 11.3% in data set [2] (pH = 0, room temperature, activation time 60 min). In addition, the Percent acetal remaining is listed as 9.0% in data set [2] (pH = 0, room temperature, activation time 90 min); 10.9% in data set [2] (pH = 0, room temperature, activation time 120 min); 9.3% in data set [2] (pH = 0, room temperature, activation time 240 min); 9.1% in [2] (pH = 0, room temperature, activation time 1440 min); 100.0% in data set [2] (pH = 1.0, room temperature, activation time 0 min); 100.6% in data set [2] (pH = 1.0, room temperature, activation time 5 min). Also, the Percent acetal remaining in [2] (pH = 1.0, room temperature, activation time 15 min) was 97.3%; in [2] (pH = 1.0, room temperature, activation time 30 min) it was 92.2%; in data set [2] (pH = 1.0, room temperature, activation time 45 min), 86.9%; in data set [2] (pH = 1.0, room temperature, activation time 60 min), 81.7%; in data set [2] (pH = 1.0, room temperature, activation time 90 min), 72.7%; in [2] (pH = 1.0, room temperature, activation time 120 min), 64.8%. Besides, the Percent acetal remaining in [2] (pH = 1.0, room temperature, activation time 240 min) turned out to be 42.2%; in data set [2] (pH = 1.0, room temperature, activation time 1440 min), 6.4%. In addition, the “Muscle concentration of prodrug” value in [3] (setting [11]) is 37.4 ng per gram; in data set [3] (setting [12]), 9.7 ng per gram; in data set [3] (setting [13]) it was 10.3 ng per gram and 9.2 ng per gram. The “toxicity after single oral dose” value in data set [4] is listed as “No evidence of toxicity”.

With `CC(C)CC(NC(=O)CCC(=O)NC(CC(=O)[O-])C[N+](C)(C)C)C(=O)NC(C=O)CCCNC(=N)N` [D-isomer], the IC50 at porcine kidney calpain 2 (FIG. 7 Panel B) is greater than 100 µM.

On to `CC(C)C[C@H](NC(=O)CCC(=O)N[C@H](CC(=O)O)C[N+](C)(C)C)C(=O)N[C@H](C=O)CCCNC(=N)N.Cl.[Cl-]` [CLA, aminocarnityl-succinyl-leucyl-argininal], for which, in data set [5] (intravenous bolus, 500 mg/kg), the lethality entry is reported as “lethal”. Also, in data set [5] (single intravenous dose), the maximum tolerated dose came to 200 mg/kg. Also, the “no adverse effect limit (NOAEL)” value in [5] (single intravenous dose) is 100 mg/kg. In addition, the toxicity entry in data set [5] (single intravenous dose, 50 and 100 mg/kg) is on record as “No toxicity”. Also, the “Estimated Plasma Concentration of CLA aldehyde” value was less than 20 ng/mL in data set [1] (setting [10]); <20 ng/mL (2×) and 72 ng/mL in data set [1] (60 minutes after single oral gavage of 50 mg/kg CLA acetal acetate salt, one line per rat, listed as CLA aldehyde, 50 mg/kg). Besides, the “Myofiber diameter (Gastrocnemis)” value with mdx mice (5 mg) is 28.7 ± 7 mm; with mdx mice (10 mg), 30.6 ± 11 mm. Also, the entries for the “Myofiber diameter, Diaphragm” value in the data set on mdx mice (5 mg) and with mdx mice (10 mg) were 25.1 ± 7.3 mm and 25.4 ± 7.3 mm, respectively. The “effectiveness relative to leupeptin alone” value with mdx mice (retention of muscle size) is listed as “at least five to seven times more effective”. Also, the “Muscle concentration of active drug” value in data set [3] (setting [11]) is 124.6 ng per gram; in data set [3] (setting [12]) it was 683.6 ng per gram; in data set [3] (setting [13]) it was 758.4 ng per gram and 330.8 ng per gram. Besides, the “Percent of drug present as the active form” value in data set [3] (setting [11]) is 76.9%; in [3] (setting [12]), 98.6%; in data set [3] (setting [13]), 98.7% and 97.3%. For the same molecule, the “% loss (muscle atrophy due to denervation)” value is listed as 5.2 ± 1% in [6] (1.0 mg/kg injected 2x/day for seven days), less than 1.0% in data set [6] (3.0 mg/kg injected 2x/day for seven days) and less than 1.0% in [6] (6.0 mg/kg injected 2x/day for seven days). Moreover, in [6] (rats, seven days of injections), the “health / toxic effect in denervation study” value is recorded as “remained healthy without any apparent negative toxic effect”. The “toxic effect on animal viability” value in data set [7] was “No toxic effect”. Besides, the “fold lower IC50 than leupeptin” value with calpain [8] is given as “approximately 200 fold”. In the data set with calpain [9] (14 μmoles), the “% inhibition of muscle calpain activity” value came out at 48%. The “% inhibition/μmole” value in the data set on calpain [9] is reported as 3.5%. Further, the “Fold (effectiveness per μmole relative to leupeptin)” value in the data set on calpain [9] turned out to be 13.5.
